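Cultured in 96-well plates, cells were exposed to test compound for 48 hours across five concentrations. GI50 marks 50% less growth.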 Activity calls are given as the source filed them. Rule as the data show it: active = GI50 up to about 1.1 µM and inactive = higher.
What was measured:
Experiment in all cases: inhibition of tumour cell growth, NCI panel, 48 h
M14 = test system: M14
DMS-114 = test system: DMS-114
KM-20L2 = test system: KM-20L2
NCI-H226 = test system: NCI-H226
NCI-H460 = test system: NCI-H460
HOP-18 = test system: HOP-18
SNB-78 = test system: SNB-78
CAKI-1 = test system: CAKI-1
SR = test system: SR
DLD-1 = test system: DLD-1
ACHN = test system: ACHN
TK-10 = test system: TK-10
M19-MEL = test system: M19-MEL
SNB-75 = test system: SNB-75
NCI/ADR-RES = test system: NCI/ADR-RES
DU-145 = test system: DU-145
MDA-MB-435 = test system: MDA-MB-435
BT-549 = test system: BT-549
MCF7 = test system: MCF7
XF498 = test system: XF498

Row | SMILES | GI50 (M14) | GI50 (DMS-114) | GI50 (KM-20L2) | GI50 (NCI-H226) | GI50 (NCI-H460) | GI50 (HOP-18) | GI50 (SNB-78) | GI50 (CAKI-1) | GI50 (SR) | GI50 (DLD-1) | GI50 (ACHN) | GI50 (TK-10) | GI50 (M19-MEL) | GI50 (SNB-75) | GI50 (NCI/ADR-RES) | GI50 (DU-145) | GI50 (MDA-MB-435) | GI50 (BT-549) | GI50 (MCF7) | GI50 (XF498)
1 | Cc1ccccc1OCC(COC(=O)Nc1ccccc1)OC(=O)Nc1ccccc1 (centres undefined) | 28.1 µM (inactive) | 42.6 µM (inactive) | 52.2 µM (inactive) | 25.8 µM (inactive) | 20.2 µM (inactive) | 34.4 µM (inactive) | 22.2 µM (inactive) | 26.5 µM (inactive) | 12.1 µM (inactive) | 28.8 µM (inactive) | > 100 µM (inactive) | > 100 µM (inactive) | 31.1 µM (inactive) | 7.1 µM (inactive) |  |  |  |  |  | 
2 | Cc1cccc(N2C(=O)C3c4[nH]c5ccc(C)cc5c4C4CCC(C(C)(C)C)CC4C3C2=O)c1 (centres undefined) | 20.2 µM (inactive) |  |  | 17.1 µM (inactive) | 13.3 µM (inactive) |  |  | 31.6 µM (inactive) |  |  |  | 24.6 µM (inactive) |  |  | 17.6 µM (inactive) | 16.1 µM (inactive) | 40.9 µM (inactive) | 27.4 µM (inactive) |  | 
3 | CC(/C=N/N=C(N)N)=N\N=C(N)N | 43.6 µM (inactive) | 16.8 µM (inactive) | 12.8 µM (inactive) | 38.5 µM (inactive) | 8.97 µM (inactive) | 246 µM (inactive) | 13.6 µM (inactive) |  | > 57.3 µM (inactive) | 48.9 µM (inactive) | 22.8 µM (inactive) | 44.7 µM (inactive) |  | 25.2 µM (inactive) | 4.15 µM (inactive) | 46.6 µM (inactive) | 12.9 µM (inactive) | 243 µM (inactive) | 27.4 µM (inactive) | 2.96 µM (inactive)
4 | Cc1c2c(cc3c1[nH]c1ccccc13)C(c1ccc(F)cc1)=NCC2 |  | 0.746 µM (active) | 1.11 µM (active) | 1.43 µM (inactive) | 0.815 µM (active) | 2.88 µM (inactive) | 1.81 µM (inactive) | 0.796 µM (active) |  | 0.851 µM (active) |  |  | 1.21 µM (inactive) | 1.24 µM (inactive) | 0.774 µM (active) |  |  |  | 1.09 µM (active) | 1.67 µM (inactive)
5 | CCOC(C)OC1CC(n2cc(C)c(=O)[nH]c2=O)OC1CO (centres undefined) | > 100 µM (inactive) | > 100 µM (inactive) | > 100 µM (inactive) | > 100 µM (inactive) | > 100 µM (inactive) | > 100 µM (inactive) | > 100 µM (inactive) |  | > 100 µM (inactive) | > 100 µM (inactive) | > 100 µM (inactive) | > 100 µM (inactive) | > 100 µM (inactive) |  |  |  |  |  |  | > 100 µM (inactive)
6 | CC1=C[C@]2(CC(C)C3C(CC4(C)C5CCC6C(C)(C)C(=O)CC[C@@]67C[C@@]57CC[C@]34C)O2)OC1=O (some centres undefined) | 47.3 µM (inactive) | 3.81 µM (inactive) |  | 1.88 µM (inactive) | 19.4 µM (inactive) | 6.43 µM (inactive) | 23.2 µM (inactive) | 16.9 µM (inactive) | 3.82 µM (inactive) | 11 µM (inactive) | 24.6 µM (inactive) | 26 µM (inactive) |  | 16.8 µM (inactive) |  |  |  |  |  | 13.9 µM (inactive)
7 | O=S(=O)(O)c1cc2ccc1/C=C\c1ccc(cc1S(=O)(=O)O)/N=N\c1ccc(c(S(=O)(=O)O)c1)/C=C\c1ccc(cc1S(=O)(=O)O)/N=N\2 |  |  | > 100 µM (inactive) | > 100 µM (inactive) | > 100 µM (inactive) | > 100 µM (inactive) | > 100 µM (inactive) |  |  | > 100 µM (inactive) |  |  | > 100 µM (inactive) | > 100 µM (inactive) | > 100 µM (inactive) |  |  |  | > 100 µM (inactive) | > 88.3 µM (inactive)
8 | CCOC(=O)C(O)(NC(=O)c1ccc(F)cc1)C(F)(F)F (centres undefined) | > 100 µM (inactive) |  |  | > 100 µM (inactive) |  |  |  | > 100 µM (inactive) | > 100 µM (inactive) |  | > 100 µM (inactive) | > 100 µM (inactive) |  | > 100 µM (inactive) | > 100 µM (inactive) | > 100 µM (inactive) | > 100 µM (inactive) | > 100 µM (inactive) | > 100 µM (inactive) | 
9 | CN(C)CCNC(=O)c1cccc2c1C(=O)c1ccccc1C2=O |  | 15.7 µM (inactive) | 28 µM (inactive) | > 94 µM (inactive) | 29.6 µM (inactive) | > 100 µM (inactive) | 24.9 µM (inactive) | 32.4 µM (inactive) |  | 25.5 µM (inactive) |  |  | 20 µM (inactive) | > 100 µM (inactive) | 27.4 µM (inactive) |  |  |  | 16.2 µM (inactive) | > 100 µM (inactive)
10 | Nc1ncc2c(n1)-c1ccccc1OC2 |  | > 100 µM (inactive) | > 100 µM (inactive) | 36.6 µM (inactive) | > 100 µM (inactive) | > 100 µM (inactive) | > 100 µM (inactive) |  |  | > 100 µM (inactive) |  |  | > 100 µM (inactive) | 22.6 µM (inactive) | > 100 µM (inactive) |  |  |  | > 100 µM (inactive) | > 100 µM (inactive)
11 | COC1C(O)CC(OC2CC(Oc3cc4cc5c(c(O)c4c(O)c3C)C(=O)[C@@H](OC3CC(OC4CC(OC6CC(C)(O)C(OC(C)=O)C(C)O6)C(O)C(C)O4)C(O)C(C)O3)[C@H]([C@H](OC)C(=O)[C@@H](O)[C@@H](C)O)C5)OC(C)C2OC(C)=O)OC1C (some centres undefined) [CHROMOMYCIN] |  | 2.14e-05 µM (active) | 0.00397 µM (active) | < 0.01 µM (active) | < 0.0133 µM (active) | 0.00445 µM (active) | 0.00337 µM (active) | < 0.01 µM (active) | < 0.01 µM (active) | 0.00849 µM (active) | 4.71e-05 µM (active) | 0.000119 µM (active) | 0.00337 µM (active) | < 0.01 µM (active) | 0.75 µM (active) | 2.48e-05 µM (active) | 2.44e-05 µM (active) | 1.49e-05 µM (active) | 0.00312 µM (active) | 0.00315 µM (active)
12 | COc1cc([C@@H]2c3cc4c(c(O[C@@H]5O[C@H]6CO[C@@H](C)O[C@H]6[C@H](O)[C@@H]5O)c3C[C@H]3COC(=O)[C@@H]32)OCO4)cc(OC)c1O |  | 3.79 µM (inactive) | 34.9 µM (inactive) | 3.75 µM (inactive) | 12.1 µM (inactive) | 11.7 µM (inactive) | 6.03 µM (inactive) |  |  | 27.7 µM (inactive) |  |  | 20.5 µM (inactive) | 5.32 µM (inactive) | 4.02 µM (inactive) |  |  |  | 4.15 µM (inactive) | 12.6 µM (inactive)
13 | CCCC[C@H]1[C@@H](OCOc2ccccc2)COC(=O)N1[C@H](C)c1ccccc1 | 12.6 µM (inactive) |  |  | > 100 µM (inactive) | 12.6 µM (inactive) |  |  | 13.5 µM (inactive) | 8.49 µM (inactive) |  | 18.2 µM (inactive) | 15.6 µM (inactive) |  | 10.8 µM (inactive) | > 34.3 µM (inactive) | 21.5 µM (inactive) | 13.3 µM (inactive) | 19.7 µM (inactive) | 11.2 µM (inactive) | 
14 | COc1cc(C(C)O)c(S(=O)(=O)CC(C)O)nn1 (centres undefined) | > 100 µM (inactive) |  |  | 64.1 µM (inactive) | > 100 µM (inactive) |  |  | > 100 µM (inactive) | 43.6 µM (inactive) |  | > 100 µM (inactive) | > 100 µM (inactive) |  |  | > 100 µM (inactive) | > 100 µM (inactive) | > 100 µM (inactive) | > 100 µM (inactive) | > 100 µM (inactive) | 
